HELM strings list units from the 5' end as sugar, base in round brackets, then linkage (d deoxyribose, r ribose, m 2'-O-methyl, p phosphodiester). Strings are as the collection lists them; they lack the last nucleoside at the 3' end of the tested compound. [moe] = 2'-O-(2-methoxyethyl) (MOE); [sp] = phosphorothioate linkage; [m5C] = 5-methylcytosine

In this data set the target is APP. Nature of the data set: mouse, dose not given. The following applies: ASO.
The substance “RNA1{[moe](A)[sp].[moe](G)p.[moe](T)p.[moe](A)p.[moe]([m5C])[sp].d(A)[sp].d(T)[sp].d(A)[sp].d(T)[sp].d(T)[sp].d([m5C])[sp].d(A)[sp].d(T)[sp].d(T)[sp].d([m5C])[sp].[moe](A)p.[moe](A)p.[moe](T)[sp].[moe]([m5C])}$$$$ (last 3' nucleoside missing)” had a 3 h FOB score of 0 score 0-7.

In turn, “RNA1{[moe](T)[sp].[moe]([m5C])p.[moe](T)p.[moe](T)p.[moe]([m5C])[sp].d(A)[sp].d([m5C])[sp].d(T)[sp].d([m5C])[sp].d([m5C])[sp].d([m5C])[sp].d(A)[sp].d(T)[sp].d([m5C])[sp].d(T)[sp].[moe](G)p.[moe]([m5C])p.[moe](A)[sp].[moe](T)}$$$$ (last 3' nucleoside missing)” came in with a 3 h FOB score of 1 score 0-7. The same measure for “RNA1{[moe](G)[sp].[moe](T)p.[moe](A)p.[moe]([m5C])p.[moe](T)[sp].d(G)[sp].d(T)[sp].d(T)[sp].d(T)[sp].d([m5C])[sp].d(T)[sp].d(T)[sp].d([m5C])[sp].d(T)[sp].d(T)[sp].[moe]([m5C])p.[moe](A)p.[moe](G)[sp].[moe]([m5C])}$$$$ (last 3' nucleoside missing)”: 2 score 0-7; for “RNA1{[moe](G)[sp].[moe](T)p.[moe](G)p.[moe](T)p.[moe]([m5C])[sp].d(A)[sp].d(T)[sp].d(A)[sp].d(A)[sp].d([m5C])[sp].d(A)[sp].d(T)[sp].d(T)[sp].d(T)[sp].d(A)[sp].[moe]([m5C])p.[moe](T)p.[moe]([m5C])[sp].[moe](A)}$$$$ (last 3' nucleoside missing)”: 0 score 0-7; for “RNA1{[moe](T)[sp].[moe](T)p.[moe]([m5C])p.[moe](A)p.[moe]([m5C])[sp].d(A)[sp].d(G)[sp].d(T)[sp].d(T)[sp].d(T)[sp].d(A)[sp].d([m5C])[sp].d([m5C])[sp].d([m5C])[sp].d([m5C])[sp].[moe](A)p.[moe](A)p.[moe](G)[sp].[moe]([m5C])}$$$$ (last 3' nucleoside missing)”: 0 score 0-7. “RNA1{[moe](T)[sp].[moe]([m5C])p.[moe](T)p.[moe]([m5C])p.[moe](A)[sp].d(T)[sp].d(A)[sp].d(G)[sp].d(T)[sp].d([m5C])[sp].d(T)[sp].d(T)[sp].d(A)[sp].d(A)[sp].d(T)[sp].[moe](T)p.[moe]([m5C])p.[moe]([m5C])[sp].[moe]([m5C])}$$$$ (last 3' nucleoside missing)” yielded a 3 h FOB score of 0 score 0-7. The same measure for “RNA1{[moe]([m5C])[sp].[moe]([m5C])p.[moe](A)p.[moe](A)p.[moe](G)[sp].d(T)[sp].d(A)[sp].d(T)[sp].d(T)[sp].d(T)[sp].d(T)[sp].d([m5C])[sp].d([m5C])[sp].d(T)[sp].d(G)[sp].[moe]([m5C])p.[moe](A)p.[moe](T)[sp].[moe]([m5C])}$$$$ (last 3' nucleoside missing)”: 0 score 0-7.

On to “RNA1{[moe]([m5C])[sp].[moe](A)p.[moe](T)p.[moe](G)p.[moe](A)[sp].d(G)[sp].d(T)[sp].d([m5C])[sp].d([m5C])[sp].d(A)[sp].d(A)[sp].d(T)[sp].d(G)[sp].d(A)[sp].d(T)[sp].[moe](T)p.[moe](G)p.[moe]([m5C])[sp].[moe](A)}$$$$ (last 3' nucleoside missing)”, for which the 3 h FOB score was 5.5 score 0-7. Consider “RNA1{[moe](G)[sp].[moe](T)p.[moe](T)p.[moe](G)p.[moe](T)[sp].d(A)[sp].d(G)[sp].d(G)[sp].d(A)[sp].d(A)[sp].d([m5C])[sp].d(T)[sp].d([m5C])[sp].d(G)[sp].d(A)[sp].[moe](A)p.[moe]([m5C])p.[moe]([m5C])[sp].[moe](A)}$$$$ (last 3' nucleoside missing)”, for which the 3 h FOB score worked out at 1 score 0-7. The same measure for “RNA1{[moe]([m5C])[sp].[moe](T)p.[moe](A)p.[moe]([m5C])p.[moe]([m5C])[sp].d([m5C])[sp].d([m5C])[sp].d(T)[sp].d([m5C])[sp].d(G)[sp].d(G)[sp].d(A)[sp].d(A)[sp].d([m5C])[sp].d(T)[sp].[moe](T)p.[moe](G)p.[moe](T)[sp].[moe]([m5C])}$$$$ (last 3' nucleoside missing)”: 0.75 score 0-7; for “RNA1{[moe](T)[sp].[moe](T)p.[moe](A)p.[moe]([m5C])p.[moe](A)[sp].d(T)[sp].d([m5C])[sp].d(A)[sp].d(T)[sp].d(T)[sp].d(T)[sp].d(T)[sp].d([m5C])[sp].d(T)[sp].d(T)[sp].[moe](G)p.[moe]([m5C])p.[moe](A)[sp].[moe](G)}$$$$ (last 3' nucleoside missing)”: 0.33 score 0-7; for “RNA1{[moe]([m5C])[sp].[moe](T)p.[moe](T)p.[moe](A)p.[moe]([m5C])[sp].d(A)[sp].d(A)[sp].d(A)[sp].d([m5C])[sp].d(T)[sp].d([m5C])[sp].d(A)[sp].d([m5C])[sp].d([m5C])[sp].d(A)[sp].[moe](A)p.[moe]([m5C])p.[moe](T)[sp].[moe](A)}$$$$ (last 3' nucleoside missing)”: 0 score 0-7. The same measure for “RNA1{[moe](G)[sp].[moe](A)p.[moe](A)p.[moe](G)p.[moe]([m5C])[sp].d(T)[sp].d(T)[sp].d(A)[sp].d([m5C])[sp].d(A)[sp].d(T)[sp].d([m5C])[sp].d(A)[sp].d(T)[sp].d(T)[sp].[moe](T)p.[moe](T)p.[moe]([m5C])[sp].[moe](T)}$$$$ (last 3' nucleoside missing)”: 0 score 0-7; for “RNA1{[moe](A)[sp].[moe](A)p.[moe]([m5C])p.[moe](T)p.[moe]([m5C])[sp].d(G)[sp].d(A)[sp].d(A)[sp].d([m5C])[sp].d([m5C])[sp].d(A)[sp].d([m5C])[sp].d([m5C])[sp].d(T)[sp].d([m5C])[sp].[moe](T)p.[moe](T)p.[moe]([m5C])[sp].[moe]([m5C])}$$$$ (last 3' nucleoside missing)”: 0 score 0-7; for “RNA1{[moe]([m5C])[sp].[moe](T)p.[moe](T)p.[moe]([m5C])p.[moe]([m5C])p.[moe]([m5C])p.d(A)[sp].d(T)[sp].d(T)[sp].d([m5C])[sp].d(T)[sp].d([m5C])[sp].d(T)[sp].d([m5C])[sp].d(A)[sp].d(T)[sp].[moe](G)p.[moe](A)[sp].[moe]([m5C])}$$$$ (last 3' nucleoside missing)”: 0 score 0-7.

For “RNA1{[moe](A)[sp].[moe](T)p.[moe]([m5C])p.[moe](A)p.[moe]([m5C])[sp].d([m5C])[sp].d(A)[sp].d(G)[sp].d(T)[sp].d(T)[sp].d(T)[sp].d([m5C])[sp].d(A)[sp].d(T)[sp].d(A)[sp].[moe]([m5C])p.[moe](A)p.[moe]([m5C])[sp].[moe](T)}$$$$ (last 3' nucleoside missing)”, the 3 h FOB score came out at 0.25 score 0-7. The same measure for “RNA1{[moe](A)[sp].[moe](A)p.[moe](A)p.[moe]([m5C])p.[moe](T)[sp].d([m5C])[sp].d(T)[sp].d(A)[sp].d([m5C])[sp].d([m5C])[sp].d([m5C])[sp].d([m5C])[sp].d(T)[sp].d([m5C])[sp].d(G)[sp].[moe](G)p.[moe](A)p.[moe](A)[sp].[moe]([m5C])}$$$$ (last 3' nucleoside missing)”: 1 score 0-7. The same measure for “RNA1{[moe](G)[sp].[moe]([m5C])p.[moe](A)p.[moe](T)p.[moe](T)p.[moe]([m5C])[sp].d(T)[sp].d([m5C])[sp].d(T)[sp].d(T)[sp].d(A)[sp].d(T)[sp].d(A)[sp].d(T)[sp].d(T)[sp].d([m5C])[sp].[moe]([m5C])p.[moe](T)[sp].[moe](T)}$$$$ (last 3' nucleoside missing)”: 1.25 score 0-7; for “RNA1{[moe](G)[sp].[moe]([m5C])p.[moe](A)p.[moe]([m5C])p.[moe](A)[sp].d(A)[sp].d(A)[sp].d(T)[sp].d(T)[sp].d(T)[sp].d(T)[sp].d(A)[sp].d(T)[sp].d([m5C])[sp].d(A)[sp].[moe]([m5C])p.[moe](A)p.[moe](T)[sp].[moe]([m5C])}$$$$ (last 3' nucleoside missing)”: 0 score 0-7. As for “RNA1{[moe](G)[sp].[moe]([m5C])p.[moe](A)p.[moe](T)p.[moe](G)[sp].d([m5C])[sp].d([m5C])[sp].d(T)[sp].d(T)[sp].d([m5C])[sp].d([m5C])[sp].d(T)[sp].d([m5C])[sp].d(A)[sp].d(T)[sp].[moe]([m5C])p.[moe]([m5C])p.[moe]([m5C])[sp].[moe]([m5C])}$$$$ (last 3' nucleoside missing)”, the 3 h FOB score is 0 score 0-7.

The values are drawn from the OligoGym collection.
